Measured values published in paper PMC5428509, “Irreversible inhibition of BTK kinase by a novel highly selective inhibitor CHMFL-BTK-11 suppresses inflammatory response in rheumatoid arthritis model” (Scientific Reports, 2017).

Assays:
Test in all cases: biochemical
Parameters in all cases: KinomeScan competition binding panel (DiscoveRx), percent of control at 1 uM
Conditions in all cases: read-out: Percent Control
[1] = biological target: T1, RPS6KA5(Kin.Dom.1-N-terminal) (Homo sapiens, UniProt O75582)
T1 construct: Kin.Dom.1-N-terminal
From the text: (§1) In order to further confirm the binding mode, we then tested the compounds in the BTK wild-type (wt) and BTK C481S mutant with immunoblotting by looking at the BTK Y551 auto-phosphorylation. […] In addition, a covalent bond was preferred to form between the […] acrylamide and Cys-481 near the hinge binding area, which further confirmed its irreversible binding mode (Fig. 1d). We next investigated CHMFL-BTK-11′s selectivity profile in 456 kinases/mutants with KinomeScan^TM technology.

RET(V804M) = RET(V804M) (Homo sapiens, UniProt P07949, V804M)
From the text: as §1

EPHB2 = EPHB2 (Homo sapiens, UniProt P29323)
EPHB2, sequence (P29323 whole entry): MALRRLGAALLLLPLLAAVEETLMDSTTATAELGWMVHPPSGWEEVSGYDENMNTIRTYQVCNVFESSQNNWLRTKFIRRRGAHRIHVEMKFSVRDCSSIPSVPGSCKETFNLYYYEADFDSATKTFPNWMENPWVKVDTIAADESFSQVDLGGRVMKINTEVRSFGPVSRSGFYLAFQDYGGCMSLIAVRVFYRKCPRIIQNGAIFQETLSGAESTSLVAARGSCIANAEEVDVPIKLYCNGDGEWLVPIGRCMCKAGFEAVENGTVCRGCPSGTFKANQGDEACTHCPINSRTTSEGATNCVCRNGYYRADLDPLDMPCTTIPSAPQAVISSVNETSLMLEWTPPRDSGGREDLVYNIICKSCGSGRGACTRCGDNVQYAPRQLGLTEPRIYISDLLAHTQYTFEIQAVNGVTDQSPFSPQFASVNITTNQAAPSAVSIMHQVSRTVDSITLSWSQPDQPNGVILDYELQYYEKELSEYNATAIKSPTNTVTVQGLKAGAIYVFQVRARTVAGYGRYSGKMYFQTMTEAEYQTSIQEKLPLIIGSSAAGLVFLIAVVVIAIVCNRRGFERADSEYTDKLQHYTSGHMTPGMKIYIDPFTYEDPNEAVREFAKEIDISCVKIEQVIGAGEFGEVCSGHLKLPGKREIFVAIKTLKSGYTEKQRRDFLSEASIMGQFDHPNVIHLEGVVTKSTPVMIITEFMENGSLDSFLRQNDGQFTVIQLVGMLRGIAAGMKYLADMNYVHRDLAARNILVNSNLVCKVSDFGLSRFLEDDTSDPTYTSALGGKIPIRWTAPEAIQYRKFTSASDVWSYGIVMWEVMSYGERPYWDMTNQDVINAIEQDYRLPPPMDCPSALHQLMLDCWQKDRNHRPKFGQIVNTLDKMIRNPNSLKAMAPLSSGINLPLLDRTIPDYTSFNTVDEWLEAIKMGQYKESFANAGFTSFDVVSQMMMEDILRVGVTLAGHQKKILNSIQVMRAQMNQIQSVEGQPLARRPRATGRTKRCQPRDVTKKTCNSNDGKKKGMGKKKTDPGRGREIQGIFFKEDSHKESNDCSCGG
From the text: as §1

SRMS = SRMS (Homo sapiens, UniProt Q9H3Y6)
From the text: as §1

ERK3 = biological target: T2, ERK3 (Homo sapiens, UniProt Q16659)
T2 construct: gene MAPK6
T2 sequence (Q16659 whole entry): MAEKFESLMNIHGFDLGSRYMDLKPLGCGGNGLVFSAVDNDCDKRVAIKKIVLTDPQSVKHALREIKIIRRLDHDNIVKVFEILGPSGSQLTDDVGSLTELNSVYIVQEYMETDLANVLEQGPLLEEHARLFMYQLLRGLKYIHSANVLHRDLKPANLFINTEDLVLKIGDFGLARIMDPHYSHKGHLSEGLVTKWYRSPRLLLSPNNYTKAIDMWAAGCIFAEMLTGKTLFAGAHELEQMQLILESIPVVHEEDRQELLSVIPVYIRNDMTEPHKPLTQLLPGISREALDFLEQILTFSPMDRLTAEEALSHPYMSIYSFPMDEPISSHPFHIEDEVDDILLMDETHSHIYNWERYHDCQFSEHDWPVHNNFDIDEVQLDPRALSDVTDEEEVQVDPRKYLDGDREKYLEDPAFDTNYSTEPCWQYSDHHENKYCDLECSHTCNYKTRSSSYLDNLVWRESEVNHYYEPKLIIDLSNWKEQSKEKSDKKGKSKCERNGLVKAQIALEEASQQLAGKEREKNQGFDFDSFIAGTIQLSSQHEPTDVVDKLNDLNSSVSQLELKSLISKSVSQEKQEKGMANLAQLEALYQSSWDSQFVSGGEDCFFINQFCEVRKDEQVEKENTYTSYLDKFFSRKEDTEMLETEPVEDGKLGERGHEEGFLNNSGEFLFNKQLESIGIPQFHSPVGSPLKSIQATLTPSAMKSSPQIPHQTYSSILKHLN
From the text: as §1

MAP3K2 = MAP3K2 (Homo sapiens, UniProt Q9Y2U5)
From the text: as §1

NEK7 = NEK7 (Homo sapiens, UniProt Q8TDX7)
From the text: as §1

ITK = ITK (Homo sapiens, UniProt Q08881)
ITK, sequence (Q08881 whole entry): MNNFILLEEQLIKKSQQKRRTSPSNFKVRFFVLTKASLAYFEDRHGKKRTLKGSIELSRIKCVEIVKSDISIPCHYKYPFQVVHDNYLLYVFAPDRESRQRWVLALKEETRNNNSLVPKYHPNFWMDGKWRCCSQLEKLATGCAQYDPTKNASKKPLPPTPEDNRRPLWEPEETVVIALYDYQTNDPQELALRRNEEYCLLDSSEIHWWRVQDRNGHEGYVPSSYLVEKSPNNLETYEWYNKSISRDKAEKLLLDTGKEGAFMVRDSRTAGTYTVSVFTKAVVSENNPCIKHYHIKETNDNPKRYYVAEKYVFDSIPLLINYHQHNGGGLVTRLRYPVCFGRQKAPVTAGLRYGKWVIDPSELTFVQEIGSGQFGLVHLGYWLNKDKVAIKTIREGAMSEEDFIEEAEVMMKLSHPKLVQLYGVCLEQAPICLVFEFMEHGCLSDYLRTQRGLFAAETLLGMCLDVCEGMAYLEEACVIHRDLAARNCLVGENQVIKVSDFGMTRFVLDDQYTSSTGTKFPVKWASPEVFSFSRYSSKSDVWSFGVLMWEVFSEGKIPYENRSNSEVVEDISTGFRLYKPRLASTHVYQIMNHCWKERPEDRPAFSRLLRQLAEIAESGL
From the text: as §1

CAMK1D = CAMK1D (Homo sapiens, UniProt Q8IU85)
From the text: as §1

BIKE = biological target: T3, BIKE (Homo sapiens, UniProt Q9NSY1)
T3 construct: gene BMP2K
T3 sequence (Q9NSY1 whole entry): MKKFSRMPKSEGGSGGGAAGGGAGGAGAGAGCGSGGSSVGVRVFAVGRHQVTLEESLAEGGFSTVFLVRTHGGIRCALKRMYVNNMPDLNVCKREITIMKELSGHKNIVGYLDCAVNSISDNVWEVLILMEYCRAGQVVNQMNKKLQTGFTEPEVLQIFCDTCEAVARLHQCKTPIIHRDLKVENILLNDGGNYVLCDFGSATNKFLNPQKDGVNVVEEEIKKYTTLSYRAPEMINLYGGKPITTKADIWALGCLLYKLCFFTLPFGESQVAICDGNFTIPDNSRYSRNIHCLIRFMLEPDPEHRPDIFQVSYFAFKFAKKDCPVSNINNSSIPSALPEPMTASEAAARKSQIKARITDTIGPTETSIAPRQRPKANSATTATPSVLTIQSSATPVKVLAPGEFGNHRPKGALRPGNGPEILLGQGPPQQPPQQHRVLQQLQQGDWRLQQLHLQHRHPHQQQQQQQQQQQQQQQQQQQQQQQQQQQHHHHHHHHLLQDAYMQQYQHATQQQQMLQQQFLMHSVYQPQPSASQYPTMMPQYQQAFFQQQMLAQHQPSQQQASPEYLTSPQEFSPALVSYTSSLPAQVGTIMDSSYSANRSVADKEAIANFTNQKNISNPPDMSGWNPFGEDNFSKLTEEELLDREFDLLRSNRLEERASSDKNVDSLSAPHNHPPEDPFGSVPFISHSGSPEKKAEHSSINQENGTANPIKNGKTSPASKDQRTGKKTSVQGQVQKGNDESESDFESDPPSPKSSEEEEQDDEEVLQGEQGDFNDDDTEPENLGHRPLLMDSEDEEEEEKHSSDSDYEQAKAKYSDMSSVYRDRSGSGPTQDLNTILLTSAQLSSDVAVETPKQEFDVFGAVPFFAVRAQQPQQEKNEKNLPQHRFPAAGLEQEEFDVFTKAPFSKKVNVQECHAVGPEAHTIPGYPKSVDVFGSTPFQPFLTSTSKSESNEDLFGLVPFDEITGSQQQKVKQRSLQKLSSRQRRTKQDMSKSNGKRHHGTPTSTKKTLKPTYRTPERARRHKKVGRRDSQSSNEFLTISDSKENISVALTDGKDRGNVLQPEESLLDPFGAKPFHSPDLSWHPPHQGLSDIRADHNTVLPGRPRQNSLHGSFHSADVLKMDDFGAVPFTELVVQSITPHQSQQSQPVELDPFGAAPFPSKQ
From the text: as §1

MST4 = biological target: T4, MST4 (Homo sapiens, UniProt Q9P289)
T4 construct: gene STK26
From the text: as §1

MAPKAPK5 = MAPKAPK5 (Homo sapiens, UniProt Q8IW41)
From the text: as §1

PIK3CD = PIK3CD (Homo sapiens, UniProt O00329)
From the text: as §1

FRK = FRK (Homo sapiens, UniProt P42685)
FRK, sequence (P42685 whole entry): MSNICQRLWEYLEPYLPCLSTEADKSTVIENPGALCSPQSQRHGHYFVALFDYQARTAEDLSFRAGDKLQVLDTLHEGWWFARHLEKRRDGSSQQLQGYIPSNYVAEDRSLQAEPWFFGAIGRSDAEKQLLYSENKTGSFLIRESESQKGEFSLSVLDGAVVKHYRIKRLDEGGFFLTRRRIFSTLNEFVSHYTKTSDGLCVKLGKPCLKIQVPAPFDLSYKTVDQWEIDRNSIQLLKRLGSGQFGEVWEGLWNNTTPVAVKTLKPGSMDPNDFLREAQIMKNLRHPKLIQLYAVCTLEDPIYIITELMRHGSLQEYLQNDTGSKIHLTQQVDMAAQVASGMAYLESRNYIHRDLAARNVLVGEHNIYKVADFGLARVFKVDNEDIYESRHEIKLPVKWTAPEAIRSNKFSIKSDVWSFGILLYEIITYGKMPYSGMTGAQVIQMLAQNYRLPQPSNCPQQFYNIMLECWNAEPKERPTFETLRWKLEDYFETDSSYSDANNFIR
From the text: as §1

[2] = biological target: T5, RSK2(Kin.Dom.1-N-terminal) (Homo sapiens, UniProt P51812)
T5 construct: gene RPS6KA3; Kin.Dom.1-N-terminal
From the text: as §1

HPK1 = biological target: T6, HPK1 (Homo sapiens, UniProt Q92918)
T6 construct: gene MAP4K1
From the text: as §1

[3] = biological target: T7, ABL1(T315I)-nonphosphorylated (Homo sapiens, UniProt P00519, T315I)
T7 construct: nonphosphorylated
From the text: as §1

MEK1 = biological target: T8, MEK1 (Homo sapiens, UniProt Q02750)
T8 construct: gene MAP2K1
From the text: as §1

CDK2 = CDK2 (Homo sapiens, UniProt P24941)
From the text: as §1

EGFR(G719C) = EGFR(G719C) (Homo sapiens, UniProt P00533, G719C)
From the text: as §1

MEK6 = biological target: T9, MEK6 (Homo sapiens, UniProt P52564)
T9 construct: gene MAP2K6
T9 sequence (P52564 whole entry): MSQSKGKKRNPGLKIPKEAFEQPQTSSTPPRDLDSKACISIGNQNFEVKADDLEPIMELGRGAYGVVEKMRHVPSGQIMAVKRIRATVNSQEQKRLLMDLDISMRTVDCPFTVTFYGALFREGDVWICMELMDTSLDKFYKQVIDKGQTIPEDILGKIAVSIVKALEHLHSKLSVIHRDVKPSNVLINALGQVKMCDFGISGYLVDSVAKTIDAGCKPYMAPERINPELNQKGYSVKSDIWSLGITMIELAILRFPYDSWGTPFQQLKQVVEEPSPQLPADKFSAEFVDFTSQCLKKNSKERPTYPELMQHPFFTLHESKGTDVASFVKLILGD
From the text: as §1

NDR2 = biological target: T10, NDR2 (Homo sapiens, UniProt Q9Y2H1)
T10 construct: gene STK38L
T10 sequence (Q9Y2H1 whole entry): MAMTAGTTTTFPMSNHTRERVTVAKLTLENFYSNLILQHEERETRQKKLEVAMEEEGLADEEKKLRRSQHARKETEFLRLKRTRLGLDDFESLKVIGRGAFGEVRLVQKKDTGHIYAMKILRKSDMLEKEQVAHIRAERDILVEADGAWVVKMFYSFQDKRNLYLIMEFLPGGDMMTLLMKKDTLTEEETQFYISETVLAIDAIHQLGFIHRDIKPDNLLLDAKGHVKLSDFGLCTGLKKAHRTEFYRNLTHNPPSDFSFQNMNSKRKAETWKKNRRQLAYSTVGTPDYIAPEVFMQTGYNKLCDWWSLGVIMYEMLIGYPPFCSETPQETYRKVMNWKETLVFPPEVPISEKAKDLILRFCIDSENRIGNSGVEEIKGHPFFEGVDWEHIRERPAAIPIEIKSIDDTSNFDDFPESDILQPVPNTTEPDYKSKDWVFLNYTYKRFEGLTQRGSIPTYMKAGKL
From the text: as §1

CAMKK2 = CAMKK2 (Homo sapiens, UniProt Q96RR4)
From the text: as §1

PIK3CA(I800L) = PIK3CA(I800L) (Homo sapiens, UniProt P42336, I800L)
From the text: as §1

## C=CC(=O)Nc1cc(-n2c(=O)ccc3cnc4ccc(-n5cccn5)cc4c32)ccc1C [CHMFL-BTK-11]
[1]
  remaining binding at 1 µM: 94%
RET(V804M)
  remaining binding at 1 µM: 100%
EPHB2
  remaining binding at 1 µM: 89%
SRMS
  remaining binding at 1 µM: 88%
ERK3
  remaining binding at 1 µM: 100%
MAP3K2
  remaining binding at 1 µM: 99%
NEK7
  remaining binding at 1 µM: 100%
ITK
  remaining binding at 1 µM: 100%
CAMK1D
  remaining binding at 1 µM: 100%
BIKE
  remaining binding at 1 µM: 91%
MST4
  remaining binding at 1 µM: 96%
MAPKAPK5
  remaining binding at 1 µM: 100%
PIK3CD
  remaining binding at 1 µM: 100%
FRK
  remaining binding at 1 µM: 100%
[2]
  remaining binding at 1 µM: 85%
HPK1
  remaining binding at 1 µM: 94%
[3]
  remaining binding at 1 µM: 79%
MEK1
  remaining binding at 1 µM: 100%
CDK2
  remaining binding at 1 µM: 100%
EGFR(G719C)
  remaining binding at 1 µM: 97%
MEK6
  remaining binding at 1 µM: 79%
NDR2
  remaining binding at 1 µM: 99%
CAMKK2
  remaining binding at 1 µM: 78%
PIK3CA(I800L)
  remaining binding at 1 µM: 62%
